Usually Ki stands for the equilibrium dissociation constant of an inhibitor or competing ligand from its target. A low value points to tighter binding.

Data on two compounds can be found in BindingDB's records for doi:10.1002/cbic.201600513 (University of Florida, 2017).

One experiment concerns the target Carbonic anhydrase 12 (Homo sapiens, UniProt O43570). Nature of the experiment: CA Inhibition Assay. From the text: (§1) CA-catalyzed CO2 hydration activity methods were published previously by Cornelio et al. as part of a larger series of benzenesulfonamide-based inhibitors with aryl substitutions in the para position of the benzene ring.
In another experiment the target is Carbonic anhydrase 2 (Homo sapiens, UniProt P00918). Nature of the experiment: CA Inhibition Assay.
From the text: as §1

Chain of Carbonic anhydrase 12 (O43570 whole entry): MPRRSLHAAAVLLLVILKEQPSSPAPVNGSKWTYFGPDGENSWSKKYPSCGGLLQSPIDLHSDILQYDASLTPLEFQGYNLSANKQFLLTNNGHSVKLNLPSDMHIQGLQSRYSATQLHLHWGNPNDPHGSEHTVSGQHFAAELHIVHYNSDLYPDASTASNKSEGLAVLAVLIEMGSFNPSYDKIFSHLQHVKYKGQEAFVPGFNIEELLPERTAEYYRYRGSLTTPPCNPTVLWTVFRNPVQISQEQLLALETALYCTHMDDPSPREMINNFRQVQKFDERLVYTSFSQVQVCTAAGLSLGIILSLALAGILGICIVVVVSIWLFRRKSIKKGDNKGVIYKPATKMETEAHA

Take `NS(=O)(=O)c1ccc(-c2cccc(C=O)c2)cc1` [4-(3-formylphenyl)-benzenesulfonamide (4e)]: the inhibition constant (Ki) at Carbonic anhydrase 12 is 0.6 nM; at Carbonic anhydrase 2, 2 nM.
The compound `NS(=O)(=O)c1ccc(-c2ccccc2)cc1` [4-(phenyl)-bezenesulfonamide (4a)] had an inhibitory constant (Ki) at Carbonic anhydrase 2 of 0.8 nM.
